“Also recorded” adds a separate entry of the source. Square brackets hold non-standard residues; d marks the D form. Ends that are not written are not given here. Peptide text beside a SMILES is read from it. * marks the point of attachment. Lys(DNP) = Lys carrying DNP quencher; Sta = CC(C)C[C@H](N)[C@@H](O)CC(=O)O; Isovaleryl = CC(C)CC(=O)*; Nle = CCCC[C@H](N)C(=O)O
Assays:
[1] = test system: Kex2; assay: MSP-MS profiling of conditioned media with inhibitor pretreatment, cleavage sites assigned to Kex2; format: biochemical, C. albicans; details: 1 mM EDTA or 10 μM pepstatin A
Source text: FIG. 8 depicts global substrate specificity profiling of recombinant Kex2 from Saccharomyces cerevisiae. (top) Time-dependent generation of cleavages following dibasic (P2-P1) K/R-R residues in the MSP-MS library for recombinant Kex2 and C. albicans wild-type (SN425) conditioned media from 24-hour biofilm and planktonic cultures. Cleavage sites assigned to Kex2 in the conditioned media profiles were sensitive to EDTA and insensitive to pepstatin treatments. […] This is illustrated in the differential cleavage pattern of an example MSP-MS peptide.

[2] = test system: pepstatin-sensitive protease activity in rat serum; assay: Sap6 substrate cleavage in blood/serum from rat biofilm catheter and IV infection models; format: biochemical
Experimental: FIG. 16 depicts the detection of pepstatin-sensitive activity in serum from C. albicans biofilm rat catheter and disseminated infection models. Detection of pepstatin-sensitive protease activity with the TFSYnRWP (SEQ ID NO: 23) fluorogenic probe in rat serum samples. Blood was collected both directly from C. albicans biofilm-infected catheters and peripherally 48 hours post biofilm infection (N=3 rats). Blood was also sampled peripherally 24 hours post IV infection with C. albicans (10^6 CFUs) (N=3 rats). Uninfected rats were used as a healthy control (N=3 rats). Activity assays were carried out using serum samples that had been diluted 25-fold into pH 4.0 buffer.
FIG. 22 depicts detection of infection-specific aspartyl protease activity in serum from a rat catheter biofilm model using the Sap6-cleavable probe. Serum was collected both directly from the biofilm-infected catheter, peripherally from the rat jugular vein, and from the jugular vein of an uninfected control rat (n=2).
To provide validation of the protease activity-based diagnostic approach in a rat biofilm catheter model, blood was directly sampled from (i) the catheters of rats with introduced C. albicans biofilms, (ii) peripherally from the same rats, and, (iii) following IV infection, and (iv) as a control, from rats not exposed to C. albicans.

[3] = test system: aspartyl protease activity in conditioned media; assay: Pepstatin pretreatment of conditioned media, fluorogenic substrate cleavage; format: biochemical, C. albicans; details: 10 μM pepstatin, VFILWRTE and TFSYnRWP substrates
Experimental: FIGS. 4A-4B depict probe activity in biofilm and planktonic conditioned media following pepstatin A pretreatment and in conditioned media from sap5Δ/Δ, sap6Δ/Δ, and sap5/6ΔΔ/ΔΔ deletion strains. […] Matched comparison to wild-type (SN425) conditioned media is provided (FIG. 12).
To further confirm probe selectivity for the target proteases, conditioned media preparations were also assayed from sap5Δ/Δ and sap6Δ/Δ single deletion mutant strains and a sap5/6ΔΔ/ΔΔ double deletion mutant strain (FIG. 4B). […] Indeed, shotgun proteomics analysis on matched biofilm conditioned media preparations from the wild-type reference and mutant strains confirmed an increase in Sap6 levels associated with the sap5Δ/Δ mutant strain. In contrast, there was no observable increase in Sap5 levels associated with the sap6Δ/Δ mutant strain in agreement with the activity results (Table 5). We note that substrate cleavage in the sap5/6ΔΔ/ΔΔ double deletion mutant strain indicates proteolytic activity from additional proteases that are in lower abundance, possibly reflecting compensation for loss of SAP5/SAP6.

[4] = test system: conditioned media from C. albicans biofilm and planktonic cultures; assay: Fluorogenic substrate cleavage in biofilm and planktonic conditioned media; format: biochemical; details: for preferential cleavage by biofilm culture medium (B/P): biofilm versus planktonic conditioned media
Experimental: Activity assays with internally quenched fluorogenic substrates were performed up to one hour in black 96-well round bottom plates (Costar) using a BioTek Synergy H4 Hybrid Multi-Mode Microplate Reader set to 37° C. The following excitation/emission wavelengths were used: 328 nm/393 nm (gain 96) for MCA and Ex/Em of 485 nm/538 nm (gain 94) for 5-FAM. RFU was corrected to moles of product formation as appropriate using a conversion factor calculated from the total proteolytic hydrolysis of each substrate. Activity assays with conditioned media were performed with 10 μM substrate and either 20 μg/mL protein sample for […] (SEQ ID NO: 22) or 10 μg/mL protein sample for TFSYnRWP (SEQ ID NO: 23). For assays with recombinant Saps, 2 μg/mL Sap5 and Sap6 were used with the following substrate concentrations: […] (10 μM; SEQ ID NO: 22), IYRnHVQL (25 μM; SEQ ID NO: 24), WPSnNKVG (25 μM; SEQ ID NO: 25), and TFSYnRWP (10 μM; SEQ ID NO: 23).

[5] = test system: recombinant Sap6; assay: Internally quenched fluorogenic substrate activity assay with recombinant Sap6; format: biochemical, C. albicans; details: 2 μg/mL recombinant Sap, 10 μM substrate, pH 5.5
Experimental: Specific activity was determined with 2 μg/mL recombinant Saps and the substrates […] (10 μM, SEQ ID NO: 22), IYRnHVQL (25 μM; SEQ ID NO: 24), WPSnNKVG (25 μM; SEQ ID NO: 25), and TFSYnRWP (10 μM; SEQ ID NO: 23). RFU was converted to moles of product formation using a correction factor experimentally determined for each substrate.
For each protease, two 8-mer peptide sequences containing P4-P4′ residues from Sap5- or Sap6-favored cleavages were selected for incorporation into internally quenched fluorogenic peptides. The fluorogenic probes were synthesized bearing either a 5-carboxyfluorescein or 7-methoxycoumarin fluorophore with a corresponding quencher positioned at opposing termini such that peptide cleavage yields a fluorescence signal.
Activity assays with internally quenched fluorogenic substrates were performed up to one hour in black 96-well round bottom plates (Costar) using a BioTek Synergy H4 Hybrid Multi-Mode Microplate Reader set to 37° C. The following excitation/emission wavelengths were used: 328 nm/393 nm (gain 96) for MCA and Ex/Em of 485 nm/538 nm (gain 94) for 5-FAM. RFU was corrected to moles of product formation as appropriate using a conversion factor calculated from the total proteolytic hydrolysis of each substrate. Activity assays with conditioned media were performed with 10 μM substrate and either 20 μg/mL protein sample for […] […]

O=C(O)CN(CCN(CC(=O)O)CC(=O)O)CC(=O)O [EDTA]
sensitivity of Kex2-assigned cleavage sites to inhibitor treatment [1]: sensitive

CC(C)CC(=O)N[C@H](C(=O)N[C@H](C(=O)N[C@@H](CC(C)C)[C@@H](O)CC(=O)N[C@@H](C)C(=O)N[C@@H](CC(C)C)[C@@H](O)CC(=O)O)C(C)C)C(C)C [Pepstatin A] (Isovaleryl-VV[Sta]A[Sta]-OH)
effect of pepstatin pretreatment on TFSYnRWP cleavage in blood of infected rats ([2]; pepstatin pretreatment): significantly reduced
sensitivity of Kex2-assigned cleavage sites to inhibitor treatment [1]: insensitive
effect of pepstatin pretreatment on substrate cleavage [3]: significant reduction in substrate cleavage

DArg-DArg-Lys(MCA)-Thr-Phe-Ser-Tyr-Nle-Arg-Trp-Pro-Lys(DNP) ({dR-dR-Lys(MCA)}-TFSY[Nle]RWP-{Lys(DNP)}) [TFSYnRWP, internally quenched fluorogenic substrate for Sap6]
substrate cleavage in blood harvested from infected rats ([2]; C. albicans biofilm catheter or IV infected rats): readily detected
cleavage activity in uninfected rats ([2]; rats not exposed to C. albicans): absent
preferential cleavage by biofilm culture medium (B/P) [4]: 4.4 fold
substrate activity in sap5Δ/Δ deletion strain conditioned media ([4]; sap5Δ/Δ single deletion strain): increased
substrate cleavage, biofilm versus planktonic conditioned media ([4]; wild-type, 24-hour conditioned media, 10 μM substrate): higher biofilm activity
specific activity and selectivity for Sap6 [5]: highest specific activity and selectivity; also recorded: high specific activity and selectivity

VFILWRTE (also: CPQ2 quencher, place not given here, 5-FAM, place not given here, DArg-DArg-NH2, place not given here) [internally quenched fluorogenic substrate for Sap5]
preferential cleavage by biofilm culture medium (B/P) [4]: 10 fold

— patent publication US11112409B2, “Systems and compositions for diagnosing pathogenic fungal infection and methods of using the same” (priority 2016, dated 2021)
